From publication PMC8221158, “Novel pyrrolizines bearing 3,4,5-trimethoxyphenyl moiety: design, synthesis, molecular docking, and biological evaluation as potential multi-target cytotoxic agents” (Journal of Enzyme Inhibition and Medicinal Chemistry, 2021)

Molecular target: T1, Aurora A (Homo sapiens, UniProt O14965)
T1 sequence (O14965 1-403): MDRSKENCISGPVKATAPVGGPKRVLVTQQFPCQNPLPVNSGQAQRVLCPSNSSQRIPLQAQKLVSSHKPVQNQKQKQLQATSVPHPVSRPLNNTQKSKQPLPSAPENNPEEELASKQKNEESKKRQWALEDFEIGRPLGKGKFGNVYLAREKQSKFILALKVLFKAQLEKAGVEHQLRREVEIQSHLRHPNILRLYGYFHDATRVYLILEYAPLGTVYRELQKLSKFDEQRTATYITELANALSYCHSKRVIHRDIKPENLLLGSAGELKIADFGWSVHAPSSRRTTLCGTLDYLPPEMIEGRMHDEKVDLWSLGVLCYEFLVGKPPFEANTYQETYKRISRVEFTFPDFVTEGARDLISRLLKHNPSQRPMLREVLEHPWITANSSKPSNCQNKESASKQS
Test: Kinase profiling test
Type: biochemical
Details: stated as inhibition
Experimental: The test was performed using the radiolabeled ATP determination method (KINEXUS Bioinformatics Corporation, Vancouver, Canada). The test was performed following the previous reports[13]^,[20].
The three compounds were tested at the same concentration (10 μM) against the same 20 kinases used in the previous report. The test was performed by KINEXUS Bioinformatics Corporation (Vancouver, Canada), following previous reports[13]^,[20].

inhibition at 10 µM: 14%
SMILES: COc1cc(C(=O)Nc2c(C#N)c3n(c2C(=O)Nc2ccc(Cl)cc2)CCC3)cc(OC)c1OC [16d, N-(4-Chlorophenyl)-7-cyano-6-(3,4,5-trimethoxybenzamido) -2,3-dihydro-1H-pyrrolizine-5-carboxamide]
